Where “and” joins values, the source holds several entries; their conditions need not be identical. Equal entries are not always repeated. ± gives the expanded uncertainty stated by the source.
Assays:
[1] = molar heat capacity at constant pressure; settings: 101.33 kPa, Large sample (1 g) DSC
[2] = Molar enthalpy of transition or fusion; settings: DSC
[3] = DTA

CC(C)(C)C(N)=O [2,2-dimethylpropanamide]
[1], Crystal
Settings	molar heat capacity at constant pressure [J/K/mol]
188 K	115.7 ± 2.2
193 K	117.6 ± 1.9
198 K	120.8 ± 2.5
203 K	123 ± 2.2
208 K	124.8 ± 2.5
213 K	126.4 ± 2.1
218 K	129.1 ± 2.2
223 K	131.5 ± 2.1
228 K	133.4 ± 2.6
233 K	136.6 ± 2.2
238 K	137.9 ± 2.2
243 K	140.2 ± 2.6
248 K	142.8 ± 2.3
253 K	144.5 ± 2.7
258 K	147.5 ± 2.4
263 K	149.2 ± 2.7
268 K	150.9 ± 2.5
273 K	153.8 ± 2.7
278 K	156.3 ± 2.4
283 K	158.3 ± 2.5
288 K	161.1 ± 2.6
293 K	163 ± 2.7
298 K	163.7 ± 2.7
303 K	165.4 ± 2.7
308 K	167.9 ± 2.7
313 K	170.2 ± 2.6
318 K	172.7 ± 2.7
323 K	174.2 ± 2.7

Crystal
Settings	Molar enthalpy of transition or fusion	Normal melting temperature
[2]	5.76 kcal/mol and 6.12 kcal/mol	–
[3]	–	152.2 ± 0.4 °C and 152.5 ± 0.4 °C

CC(C)C(N)=O [2-methylpropanamide]
[1], Crystal
Settings	molar heat capacity at constant pressure [J/K/mol]
183 K	100.8 ± 1.9
188 K	102.9 ± 2.3
193 K	105 ± 1.8
198 K	107.1 ± 1.8
203 K	110.5 ± 2.4
208 K	112.4 ± 2.3
213 K	114 ± 2.3
218 K	115.6 ± 2.4
223 K	118.7 ± 2.1
228 K	120.3 ± 1.9
233 K	122.8 ± 2.4
238 K	124.8 ± 1.9
243 K	127.3 ± 2.4
248 K	130.8 ± 2
253 K	132.6 ± 2.6
258 K	134.6 ± 2.5
263 K	137.6 ± 2.7
268 K	138.8 ± 2.7
273 K	141.9 ± 2.7
278 K	144.6 ± 2.6
283 K	146.5 ± 2.4
288 K	148.5 ± 2.6
293 K	150.9 ± 2.5
298 K	152.4 ± 2.7
303 K	154.1 ± 2.8
308 K	158 ± 2.7
313 K	160.2 ± 2.5
318 K	162.7 ± 2.9
323 K	164.5 ± 2.9

Crystal
Settings	Molar enthalpy of transition or fusion	Normal melting temperature
[2]	4.59 kcal/mol and 4.61 kcal/mol	–
[3]	–	127.0 ± 0.4 °C and 127.2 ± 0.4 °C

CCCC(N)=O [butanamide]
[1], Crystal
Settings	molar heat capacity at constant pressure [J/K/mol]
183 K	96.4 ± 2
188 K	98.3 ± 2.1
193 K	101.7 ± 2.3
198 K	104.1 ± 1.9
203 K	106.4 ± 1.8
208 K	108 ± 1.9
213 K	109.7 ± 2
218 K	112.5 ± 2.4
223 K	114.3 ± 2.4
228 K	116 ± 2.2
233 K	118.1 ± 2.1
238 K	120.8 ± 2.3
243 K	123 ± 2.4
248 K	125.9 ± 2.4
253 K	127.4 ± 2.4
258 K	130.2 ± 2.2
263 K	132.4 ± 2.6
268 K	135 ± 2.1
273 K	136.8 ± 2.6
278 K	139.3 ± 2.4
283 K	141.5 ± 2.7
288 K	143.7 ± 2.5
293 K	146.4 ± 2.6
298 K	147.7 ± 2.3
303 K	150.3 ± 2.5
308 K	153.5 ± 2.5
313 K	155 ± 2.4
318 K	158.8 ± 2.7
323 K	161.4 ± 2.5

Settings	Molar enthalpy of transition or fusion, [2] [kcal/mol]	Normal melting temperature, [3] [°C]
Crystal	4.59 ± 0.311	114.2 ± 0.9
Crystal 1	4.68 ± 0.12	114.2 ± 0.4

CCCCCCCCCC(N)=O [decanamide]
[1], Crystal 2
Settings	molar heat capacity at constant pressure [J/K/mol]
263 K	236.4 ± 3.7
268 K	238.5 ± 3.7
273 K	247.6 ± 3.9
278 K	251.1 ± 3.9
283 K	260.7 ± 4.1
288 K	266.4 ± 4.2
293 K	270.2 ± 4.2
298 K	272.4 ± 4.2
303 K	278.5 ± 4.4
308 K	287 ± 4.5
313 K	291.6 ± 4.6
318 K	297.9 ± 4.7
323 K	304.4 ± 4.8

Settings	Molar enthalpy of transition or fusion, Crystal 1	Molar enthalpy of transition or fusion, Crystal 2	Molar enthalpy of transition or fusion, Crystal 3 [kcal/mol]	Normal melting temperature, Crystal 1	Triple point temperature, Crystal 2	Triple point temperature, Crystal 3
[2]	3.61 kcal/mol and 4.16 kcal/mol	4.49 kcal/mol and 5.04 kcal/mol	0.251	–	–	–
[3]	–	–	–	97.5 ± 0.8 °C and 97.8 ± 0.4 °C	366.3 ± 1 K and 366.9 ± 0.7 K	218.7 ± 0.6 K and 218.7 ± 0.4 K

CCCCCCCCCCCCCCCCCCCCCC(N)=O [docosanamide]
[1], Crystal
Settings	molar heat capacity at constant pressure [J/K/mol]
228 K	420.4 ± 6.6
233 K	431.8 ± 6.7
238 K	439.8 ± 6.8
243 K	449.2 ± 7
248 K	461.3 ± 7.2
253 K	470.1 ± 7.3
258 K	480.5 ± 7.5
263 K	493 ± 7.7
268 K	500.2 ± 7.8
273 K	511.9 ± 8
278 K	523.7 ± 8.2
283 K	539.7 ± 8.4
288 K	548.1 ± 8.5
293 K	561.1 ± 8.7
298 K	568.7 ± 8.8

Crystal
Settings	Molar enthalpy of transition or fusion	Normal melting temperature
[2]	15.1 kcal/mol and 15.5 kcal/mol	–
[3]	–	110.2 ± 0.5 °C and 111.8 ± 1 °C

CCCCCCCCCCCC(N)=O [dodecanamide]
[1], Crystal 2
Settings	molar heat capacity at constant pressure [J/K/mol]
198 K	213.3 ± 3.3
203 K	217.8 ± 3.6
208 K	223.3 ± 3.6
213 K	227.1 ± 3.7
218 K	231.8 ± 3.8
223 K	237.5 ± 3.7
228 K	242.2 ± 3.9
233 K	245.9 ± 3.8
238 K	251.2 ± 4
243 K	258.4 ± 4
248 K	263 ± 4.1
253 K	269.2 ± 4.2
258 K	274.3 ± 4.3
263 K	280.8 ± 4.4

Settings	Molar enthalpy of transition or fusion, [2]	Normal melting temperature, [3]	Triple point temperature, [3]
Crystal 1	8.68 kcal/mol and 8.53 kcal/mol	100.2 ± 0.4 °C and 100.7 ± 1 °C	–
Crystal 2	2.32 kcal/mol and 2.15 kcal/mol	–	321.1 ± 0.4 K and 322 ± 0.9 K

CCCCCCCCCCCCCCCC(N)=O [hexadecanamide]
[1], Crystal 2
Settings	molar heat capacity at constant pressure [J/K/mol]
208 K	267.5 ± 4.3
213 K	273.7 ± 4.7
218 K	276.5 ± 4.6
223 K	282.8 ± 4.5
228 K	289 ± 4.8
233 K	297.1 ± 4.8
238 K	302.6 ± 4.9
243 K	310.3 ± 4.9
248 K	319.5 ± 5.1
253 K	323.8 ± 5.2
258 K	331.6 ± 5.4
263 K	340.1 ± 5.5
268 K	348.1 ± 5.5
273 K	357.9 ± 5.6
278 K	364.8 ± 5.9
283 K	371.6 ± 5.9
288 K	378.1 ± 6
293 K	387.6 ± 6.1
298 K	394.3 ± 6.1
303 K	401.8 ± 6.4

Settings	Molar enthalpy of transition or fusion, [2]	Normal melting temperature, [3]	Triple point temperature, [3]
Crystal 1	10.9 kcal/mol and 10.8 kcal/mol	103 ± 0.8 °C and 102.5 ± 0.8 °C	–
Crystal 2	2.49 kcal/mol and 2.46 kcal/mol	–	355.5 ± 0.8 K and 356.1 ± 0.5 K

CCCCCC(N)=O [hexanamide]
[1], Crystal 2
Settings	molar heat capacity at constant pressure [J/K/mol]
183 K	119.1 ± 2.1
188 K	121.1 ± 2.4
193 K	126.6 ± 2.2
198 K	128.6 ± 2
203 K	132.5 ± 2.4
208 K	135.8 ± 2.2
213 K	138.8 ± 2.2
218 K	142.1 ± 2.2
223 K	146.7 ± 2.3
228 K	150.8 ± 2.4
233 K	155.3 ± 2.4
238 K	160.1 ± 2.5
243 K	165.6 ± 2.7
248 K	169.6 ± 2.6
253 K	173.1 ± 2.9

Settings	Molar enthalpy of transition or fusion, [2]	Normal melting temperature, [3]	Triple point temperature, [3]
Crystal 1	3.99 kcal/mol and 4.21 kcal/mol	100 ± 0.4 °C and 100 ± 0.9 °C	–
Crystal 2	1.89 kcal/mol	–	305.1 ± 0.4 K and 306 ± 0.7 K

CCCCCCCCCCCCCCCCCC(N)=O [octadecanamide]
[1], Crystal 2
Settings	molar heat capacity at constant pressure [J/K/mol]
208 K	318.2 ± 5
213 K	328.5 ± 5.1
218 K	336.6 ± 5.2
223 K	345.2 ± 5.4
228 K	353.1 ± 5.5
233 K	360.8 ± 5.6
238 K	367.6 ± 5.7
243 K	375.8 ± 5.9
248 K	385.6 ± 6
253 K	393.6 ± 6.1
258 K	403.2 ± 6.3

Settings	Molar enthalpy of transition or fusion, [2]	Normal melting temperature, [3]	Triple point temperature, [3] [K]
Crystal 1	13.1 kcal/mol and 13.2 kcal/mol	106.6 ± 0.5 °C and 107 ± 0.9 °C	–
Crystal 2	0.526 ± 0.0717 kcal/mol	–	298.7 ± 0.7

CCCCCCCC(N)=O [octanamide]
[1]
Settings	molar heat capacity at constant pressure [J/K/mol]
183 K, Crystal 3	164.7 ± 2.6
188 K, Crystal 3	169 ± 2.8
193 K, Crystal 3	174.2 ± 2.7
198 K, Crystal 2	180.6 ± 2.9
203 K, Crystal 2	189.7 ± 3
208 K, Crystal 2	197.1 ± 3.2
213 K, Crystal 2	204.6 ± 3.3
218 K, Crystal 2	213.2 ± 3.4
223 K, Crystal 2	224.4 ± 3.5
228 K, Crystal 2	228.2 ± 3.5
233 K, Crystal 2	232.8 ± 3.7
238 K, Crystal 2	234.3 ± 3.6
243 K, Crystal 2	235.1 ± 3.6
248 K, Crystal 2	236.3 ± 3.8
253 K, Crystal 2	233.9 ± 3.6
258 K, Crystal 2	236.1 ± 3.8
263 K, Crystal 2	238.3 ± 3.7
268 K, Crystal 2	235.4 ± 3.8
273 K, Crystal 2	241.2 ± 3.8
278 K, Crystal 2	242.7 ± 3.8
283 K, Crystal 2	243.9 ± 3.8
288 K, Crystal 2	244.9 ± 3.8
293 K, Crystal 2	246.5 ± 3.8
298 K, Crystal 2	245.1 ± 3.8
303 K, Crystal 2	246.7 ± 3.8
308 K, Crystal 1	249.3 ± 3.9
313 K, Crystal 1	251.8 ± 4

Settings	Molar enthalpy of transition or fusion, Crystal 1	Molar enthalpy of transition or fusion, Crystal 2	Molar enthalpy of transition or fusion, Crystal 3 [kcal/mol]	Normal melting temperature, Crystal 1	Triple point temperature, Crystal 2	Triple point temperature, Crystal 3 [K]
[2]	6.6 kcal/mol and 6.5 kcal/mol	0.232 kcal/mol and 0.237 kcal/mol	0.457 ± 0.0359	–	–	–
[3]	–	–	–	104 ± 1 °C and 104.6 ± 0.4 °C	304.5 ± 0.7 K and 304.5 ± 0.4 K	194.4 ± 1.7

CCCCC(N)=O [pentanamide]
[1]
Settings	molar heat capacity at constant pressure [J/K/mol]
183 K, Crystal 3	111.5 ± 1.7
188 K, Crystal 3	116.1 ± 1.8
193 K, Crystal 3	118.5 ± 2.3
198 K, Crystal 3	122.5 ± 1.9
203 K, Crystal 3	128.9 ± 2
208 K, Crystal 3	133.1 ± 2.1
213 K, Crystal 2	139.1 ± 2.2
218 K, Crystal 2	145.1 ± 2.3
223 K, Crystal 2	154 ± 2.5
228 K, Crystal 2	162.5 ± 2.5
233 K, Crystal 2	175 ± 2.7
238 K, Crystal 2	183.4 ± 2.9
243 K, Crystal 2	195.4 ± 3.1
248 K, Crystal 2	200.8 ± 3.1
253 K, Crystal 2	199.8 ± 3.1
258 K, Crystal 2	196.2 ± 3
263 K, Crystal 2	191.6 ± 3.2
268 K, Crystal 2	185.8 ± 3.2
273 K, Crystal 2	189.4 ± 2.9
278 K, Crystal 2	187.1 ± 2.9
283 K, Crystal 2	188.4 ± 3
288 K, Crystal 2	188.4 ± 3
293 K, Crystal 2	190 ± 3.1
298 K, Crystal 2	190.3 ± 2.9
303 K, Crystal 2	192.6 ± 3.1
308 K, Crystal 2	196.4 ± 3.2
313 K, Crystal 2	198.4 ± 3.3
318 K, Crystal 2	202.5 ± 3.2
323 K, Crystal 2	204.5 ± 3.2

Settings	Molar enthalpy of transition or fusion, Crystal 1	Molar enthalpy of transition or fusion, Crystal 2	Molar enthalpy of transition or fusion, Crystal 3 [kcal/mol]	Normal melting temperature, Crystal 1	Triple point temperature, Crystal 2	Triple point temperature, Crystal 3 [K]
[2]	4.28 kcal/mol and 4.61 kcal/mol	0.287 kcal/mol and 0.253 kcal/mol	0.454 ± 0.0717	–	–	–
[3]	–	–	–	104.1 ± 0.4 °C and 103.6 ± 0.9 °C	365 ± 1 K and 365.4 ± 0.4 K	211.8 ± 0.9

CCC(N)=O [propanamide]
Crystal
Settings	Molar enthalpy of transition or fusion [kcal/mol]	Normal melting temperature [°C]
[2]	3.08 ± 0.263	–
[3]	–	79.5 ± 0.4
